Assay results as given in US20220226270A1, “VERY-LONG-CHAIN POLYUNSATURATED FATTY ACIDS, ELOVANOID HYDROXYLATED DERIVATIVES, AND METHODS OF USE” (Board of Supervisors of Louisiana State University and …, priority 2019, published 2022).

Key:
ARPE-19 cells under UOS = experiment: Western blot of pro-survival and pro-apoptotic proteins in ARPE-19 cells under UOS; assay type: cell-based, human; conditions: for Bax protein / Bid protein / Bim protein: Western blot, UOS; for Prohibitin (type-1) expression (ELV): sodium salts and methyl ester forms, concentration-dependent, 100-200 nM; for effect of 15-LOX-1 inhibitor on VLC-PUFA-induced Iduna expression: FIG. 7D
Protocol: (§1) ARPE19 cells at 75-80% confluence (72 h growth in DMEM/F12+10% FBS) in 6-well plates were serum-starved for 8 h before exposure. The serum-starved cells were treated with TNF-α (Sigma-Aldrich, St. Louis, Mo.) (10 ng/ml) and H2O2 (600 μM) to induce oxidative stress and challenged with increasing concentrations (50-500 nM) of VLC-PUFA (C32:6n3 and C34:6n3) simultaneously with oxidative stress for 16 h (apoptosis) and 6 h (Western-blot) before detection of apoptosis and harvesting for protein analysis. In some experiments, DHA at a concentration of 100 nM and 15-LOX-1 inhibitor PD146176 at a concentration of 1 μM was added to treat the RPE cells under stress. Cell extracts were made and protein concentrations adjusted by Bio-Rad (Hercules, Calif.) protein reagent and used for Western blot analysis.
Analysis of Proteins: Bcl-2 family proteins, SIRT1 and Proinhibitin (type-1), and Iduna proteins were analyze by Western blot analysis. In brief, 20-25 μg equivalents of each cell extracts were subject to electrophoresis on a 4-12% gel (Promega) at 125 V for 2 h. The proteins were transferred to nitrocellulose membrane by I-blot transfer apparatus. The membranes were subjected to treatment with primary antibodies specific for Bcl-2, Bcl-xL, Bax, Bid, Bim, SIRT1 and Prohibitin (type-1) (Santa Cruz Biotechnology) and Iduna antibody (Neuro-Mab Lab, UCLA, Los Angeles, Calif.) overnight at 4° C. and probed for 45 mins with secondary antibody, goat anti-mouse Ig:horseradish peroxidase, and horseradish peroxidase-conjugated anti-biotin antibody, and then proteins were evaluated by using an ECL kit (Amersham).

[1] = system: cerebral cortical mixed neuronal cells; experiment: NMDA excitotoxicity in cerebral cortical mixed neuronal cultures; assay type: cell-based, rat; conditions: for NMDA-induced neuronal death: NMDA 25, 50 or 100 μM for 12 h, ELV (Na or Me) 200 nM or 500 nM added simultaneously
Text: Primary cultures of cortical neurons: Primary cultures of cortical and hippocampal neurons were harvested from 18-day-old embryos (E18) taken from timed-pregnant, two-month-old Sprague-Dawley (SD) rats (Charles River Lab., Wilmington, Mass.). Briefly, timed-pregnant SD rats were euthanized and embryos were collected in sterile conditions. Embryonic brains were dissected out by forceps on ice and placed in a petri dish containing ice-cold Hank's Balanced Salt Solution (HBSS) (GIBCO). Meninges were removed under a dissecting microscope and cortical tissues were chopped into small pieces with micro-spring scissors. These tissues were transferred to 15 ml tubes containing trypsin-EDTA (0.025% in HBSS) and DNase I. The tubes were incubated in 37° C. chamber for 15 mins and were agitated every 5 mins. After stopping the trypsinization with 5 ml 10% FBS, these tissues were triturated 15 times with a fire polished Pasteur pipet. Cell clumps were left to settle for 2 mins and the supernatant was transferred to a 15 ml Eppendorf tube. The supernatant was filtered through a 70 μm pore-sized filter (Corning cell strainer) and centrifuged for 5 mins at 1000 rpm. The cells were then resuspended in Neurobasal medium (GIBCO) containing 2% B27 (GIBCO) and 2% N2 (GIBCO) supplements, along with 0.5 mM glutamine, 50 U/ml penicillin/streptomycin.
Cells were counted using a Neubauer hemocytometer. 1×10^6 cells were seeded on poly-D-lysine-coated 12 well cell culture dish (CORNING) and cultured in incubator (37° C., 5% CO2). Culture medium was first replaced after 24 h, then half of the medium was replaced with fresh medium every three days. As a result, approximately, 90% purity of neurons was obtained as determined by class-III-β tubulin, GFAP and Hoechst 33258 staining. Cells were maintained in culture for about 2 weeks until they were exposed to uncompensated oxidative stress, OGD, or NMDA excitotoxicity.
After 90 mins of OGD exposure, cells were returned to the original medium (Neurobasal medium (GIBCO) containing 2% B27 (GIBCO) and 2% N2 (GIBCO) supplements, along with 0.5 mM glutamine, 50 U/ml penicillin/streptomycin) and placed in a normoxic chamber (37° C., 5% CO2) for 2 h. Then the medium was changed with medium containing either ELV-N32 or ELV-N34 [500 nM] and maintained in a normoxic chamber (37° C., 5% CO2) for 12 h, after which cells were sampled and assayed for cell viability using different methods as previously described (25-28). Cerebral cortical mixed neuronal cells or hippocampal cells in culture were exposed to either NMDA or uncompensated oxidative stress (UOS) for 12 h by addition of either NMDA (25 μM, 50 μM, or 100 μM) concentration or by the addition of TNFα (10 ng/mL) and H2O2 (50 μM, 100 μM, or 200 μM). Cell viability and neuroprotection in the presence of ELV-N32, ELV-N34, 32:6, or 34:6 were assayed after 12 h.
Hoechst staining and unbiased image analysis: Cells were washed with 1× Dulbecco's Phosphate Buffered Saline (DPBS) containing no calcium or magnesium (GIBCO) and fixed for 10 mins using ice-cold 4% paraformaldehyde (PFA) followed by 15 mins incubation in 100% methanol. Cells were washed with 1× Phosphate Buffered Saline (PBS) pH 7.4 (GIBCO) and incubated in PBS containing 20 μM Hoechst 33258 (Molecular Probes) for 20 mins. Cells were then washed 3 times with 1× PBS and stored in 1× PBS at 4° C. until they were imaged for microscopy.
One 4×4 tile mosaic was acquired from the center of each well using a Zeiss 510 Meta laser confocal microscope and LSM 510 Meta software. Images were imported into image analysis software ImageJ (National Institutes of Health, Bethesda, Md.) and batch processed using custom macros. An Otsu auto threshold was applied to each image of Hoechst-stained nuclei, and the area of each detected object was recorded. Objects with areas <10 μm^2 were excluded from analysis. To estimate percentage non-pyknotic nuclei, a size cutoff value was chosen above which objects were assumed to be non-pyknotic. […]

[2] = system: mice sub-retinally injected with OAβ; experiment: Oligomeric Aβ (OAβ)-induced RPE senescence and retinal degeneration, sub-retinal injection; assay type: in vivo, mouse; conditions: 200 ng co-injected with 10 μM OAβ, 2 μl sub-retinal
Text: As shown in FIGS. 14A-14C, elovanoids (ELV) counteract AR peptide-induced retinal pigment epithelial cell senescence progression. Aβ42, an end product of the amyloidogenic pathway, is a component of drusen in age-related macular degeneration (AMD), and of senile plaques in Alzheimer's disease (AD). To mimic the effect of OAβ in vivo, 6-month-old mice were used and sub-retinally injected with OAβ alone, OAβ+ELVs and ELVs alone. The no injection mice were used as negative control while the PBS injected mice were used as the sham. The injection volume was 2 μl containing of PBS, 10 μM of OAβ, 10 μM of OAβ+200 ng ELV-32, 200 ng ELV-32 alone, 10 μM of OAβ+200 ng ELV-34 or 200 ng ELV-34 alone. At day 3 after injection, mRNA from eyecup was isolated and analyzed the gene expression using q-PCR. Then, at day 7, the mice were subjected to Optical Coherence Tomography (OCT) analysis and then the eyes were enucleated and processed for histology, whole mount RPE staining, and western blotting (WB). OCT and histology uncovers that in OAβ induced retinal degeneration, the thickness of retina was thinner in OAβ injected group when compared to the controls as well as ELVs treatment groups.

primary human RPE cells = experiment: UOS-induced cell death in primary human RPE cells (Hoechst staining); assay type: cell-based; conditions: UOS with H2O2 (800 μM), 16 h; VLC-PUFAs 3 μM each, NPD1 200 nM; UOS alone 50% cell death
Protocol: Exposure of RPE cells to UOS and VLC-PUFA: For cell viability assay experiments hRPE cells were treated concomitantly with NPD1 (200 nM), 32-6, 34-6 (3 μM each) fatty acids or both 32-6 and 34-6 simultaneously. The hRPE medium was supplemented with 3 μM of 32-6 and 34-6 for the entire duration of the experiment. 15 lox-1 inhibitor (10 μM) was added to the cells 1 hour prior the OS induction and kept throughout the experiment. Cells were fixed with 4% PFA and stained with Hoescht.
(§2) To assess cell death, hRPE and ARPE-19 cells were fixed with methanol for 15 mins, washed with 1× PBS then loaded with 2 μM Hoechst dissolved in a Locke's solution (Promega) and incubated for another 15 mins before imaging. Cells were then viewed by using a Zeiss LSM 510 confocal microscope under UV fluorescence. Images were recorded and cell apoptosis was assessed by using an automated unbiased method.
To test the efficacy of 32:6n3 and 34:6n3 VLC-PUFAs to modulate human RPE cell homeostasis and survival rates, human RPE cells undergoing UOS were incubated with both VLC-PUFAs (3 μM each) and NPD1 (200 nM) 16 h. The addition of H2O2 (800 μM) induced apoptosis (50% cell death).
hRPE cells, formerly serum deprived for 12 h, were incubated with the 15 lipoxygenase 1 (15-LOX-1) inhibitor (PD146176) (10 μM for 1 h), then bathed with 600 μM H2O2/TNF-α in conjunction with a mixture of 32:6n3 and 34:6n3 (3 μM each) for 16 h. The 15-LOX-1 inhibitor sensitizes cells; therefore, a lower concentration of H2O2 than in the cytoprotection experiment was used.

ARPE-19 cells = experiment: UOS-induced apoptosis in ARPE-19 cells (Hoechst-positive pyknotic cells); assay type: cell-based, human; conditions: inhibitor 1 μM, RPE cells undergoing UOS
Protocol: as §1, §2

Molecule | Bax protein (ARPE-19 cells under UOS) | Bid protein (ARPE-19 cells under UOS) | Bim protein (ARPE-19 cells under UOS) | Prohibitin (type-1) expression (ELV) (ARPE-19 cells under UOS) | NMDA-induced neuronal death [1] | protection of RPE and retina from OAβ induced senescence [2] | further results
CC/C=C\C[C@H](O)\C=C/C=C/C=C/[C@H](O)C/C=C\C/C=C\CCCCCCCCCCCCC(=O)O [ELV-N32, (14Z,17Z,20R,21E,23E,25Z,27S,29Z)-20,27-dihydroxydo-triaconta-14,17,21,23,25,29-hexaenoic acid] | decreased | decreased | decreased | upregulated | compensated for | protect RPE and retina | –
CC/C=C\C[C@H](O)\C=C/C=C/C=C/[C@H](O)C/C=C\C/C=C\CCCCCCCCCCCCCCC(=O)O [ELV-N34, (16Z,19Z,22R,23E,25E,27Z, 29S,31Z)-22,29-dihydroxytetra-triaconta-16,19,23,25,27,31-hexaenoic acid] | decreased | decreased | decreased | upregulated | compensated for | protect RPE and retina | –
CC/C=C\C[C@H](O)\C=C/C=C/C=C/[C@H](O)C/C=C\C/C=C\CCC(=O)O [NPD1, 10R,17S-dihydroxy-docosa-4Z,7Z,11E,13E,15Z,19Z-hexaenoic acid, reference compound] | – | – | – | – | – | – | cell death (apoptosis) (primary human RPE cells): 11%
c1ccc2c(c1)SCc1c-2[nH]c2ccccc12 [PD146176, reference compound] | – | – | – | – | – | – | SIRT1 expression with VLC-PUFA in the presence of 15-LOX-1 inhibitor (ARPE-19 cells under UOS; FIG. 7C): augmented; effect of 15-LOX-1 inhibitor on VLC-PUFA-induced Iduna expression (ARPE-19 cells under UOS): attenuates; effect of 15-LOX-1 inhibitor on VLC-PUFA-induced Iduna expression (ARPE-19 cells under UOS; listed as 15-LOX-1 inhibitor): unaffected; effect of 15-LOX-1 inhibitor on ELV-induced protein upregulation (Iduna) (ARPE-19 cells under UOS; inhibitor 1 μM): blocked these effects; effect of 15-LOX-1 inhibitor on ELV-mediated inhibition of apoptosis (ARPE-19 cells): compensate for ELV-mediated inhibition of apoptosis
MK801 maleate [reference compound] | – | – | – | – | – | – | NMDA excitotoxicity ([1]; 10 μM antagonist): overcome
